Earlier results on two compounds are cited in patent US20060148897A1, “Method for sterilization using in situ gelling materials” (priority 2002, published 2006).

Each structure is given as a SMILES string.

The conditions of this series: amine group (alpha amine; lysine: side chain epsilon amine).

With `NC(=O)C[C@H](N)C(=O)O` [asparagine], the pK is recorded as 8.8.
On to `NCCCC[C@H](N)C(=O)O` [lysine], for which the pK is 10.80.
